Calls of active or inactive are those of the source. The rule behind the calls is not given here.
Key:
[1] = Antiproliferative activity against human K562 cells measured after 72 hrs by CCK8 assay; type: functional, cell-based; conditions: K562, 72 h
[2] = tested on: K562; experiment: Resistance index, ratio of IC50 for human K562/ADR cells to IC50 for human K562 cells; type: functional
[3] = biological target: T1, c-Jun N-terminal kinase, JNK (Homo sapiens) (UniProt P45983+P53779+P45984); experiment: Induction of JNK phosphorylation in human K562/ADR cells assessed as ratio of phosphorylated JNK to beta-actin level at 0.1 uM pretreated with MAPK inhibitor SP600125 for 1 hr followed by compound addition after 48 hrs by Western blotting method (reference value: 0.46); type: cell-based
[4] = biological target: MAP kinase p38 (Homo sapiens) (UniProt O15264+Q15759+Q16539+P53778); experiment: Induction of P38 phosphorylation in human K562/ADR cells assessed as ratio of phosphorylated p38 to beta-actin level at 0.1 uM pretreated with MAPK inhibitor SP600125 for 1 hr followed by compound addition after 48 hrs by Western blotting method (reference value: 0.25); type: cell-based
[5] = biological target: T1, c-Jun N-terminal kinase, JNK (Homo sapiens); experiment: Induction of JNK phosphorylation in human K562/ADR cells assessed as ratio of phosphorylated JNK to beta-actin level at 0.1 uM pretreated with ROS scavenger NAC for 2 hrs followed by compound addition after 48 hrs by Western blotting method (reference value: 0.46); type: cell-based
[6] = Cell cycle arrest in human K562/ADR cells assessed as accumulation at S-phase at 0.1 uM measured after 48 hrs by propidium iodide staining-based flow cytometry (reference value: 47.29 +/- 2.22%); type: functional
[7] = Downregulation of CyclinA expression in human K562/ADR cells assessed as ratio of CyclinA to beta-actin level at 0.1 uM pretreated with ROS scavenger NAC for 2 hrs followed by compound addition measured after 48 hrs by Western blot analysis (reference value: 0.64); type: functional, cell-based
[8] = Downregulation of CyclinA expression in human K562/ADR cells assessed as ratio of CyclinA to beta-actin level at 0.1 uM pretreated with MAPK inhibitor SP600125 for 1 hr followed by compound addition measured after 48 hrs by Western blot analysis (reference value: 0.64); type: functional, cell-based
[9] = tested on: K562/Adr; experiment: Induction of apoptosis in human K562/ADR cells assessed as viable cells at 0.1 uM pretreated with ROS scavenger NAC for 2 hrs followed by compound addition after 48 hrs by Annexin V-APC/7-AAD staining based flow cytometry (reference value: 95.31%); type: functional; conditions: read-out: Activity
[10] = tested on: K562/Adr; experiment: Induction of apoptosis in human K562/ADR cells assessed as early apoptotic cells at 0.1 uM pretreated with ROS scavenger NAC for 2 hrs followed by compound addition after 48 hrs by Annexin V-APC/7-AAD staining based flow cytometry (reference value: 2.74%); type: functional
[11] = tested on: K562/Adr; experiment: Induction of apoptosis in human K562/ADR cells assessed as necrotic cells at 0.1 uM pretreated with MAPK inhibitor SP600125 for 1 hr followed by compound addition after 48 hrs by Annexin V-APC/7-AAD staining based flow cytometry (reference value: 0.26%); type: functional; design: scale not given: the % may be the effect or the level left
[12] = tested on: K562/Adr; experiment: Induction of apoptosis in human K562/ADR cells assessed as early apoptotic cells at 0.1 uM pretreated with MAPK inhibitor SB203580 for 1 hr followed by compound addition after 48 hrs by Annexin V-APC/7-AAD staining based flow cytometry (reference value: 2.74%); type: functional; design: scale not given: the % may be the effect or the level left
[13] = tested on: K562/Adr; experiment: Induction of apoptosis in human K562/ADR cells assessed as ratio of cleaved caspase-3 to beta-actin level at 0.1 uM pretreated with MAPK inhibitor U0126 for 1 hr followed by compound addition measured after 48 hrs by Western blot analysis (reference value: 0.06); type: functional
[14] = tested on: K562/Adr; experiment: Induction of apoptosis in human K562/ADR cells assessed as cell shrinkage at 0.1 uM measured after 24 hrs by Hoechst33342 staining-based inverted fluorescent microscopic analysis; type: functional
[15] = Downregulation of P-gp expression in human K562/ADR cells assessed as ratio of P-gp to beta-actin level at 0.1 uM pretreated with MAPK inhibitor SP600125 for 1 hr followed by compound addition measured after 48 hrs by Western blot analysis (reference value: 0.63); type: functional, cell-based
[16] = Downregulation of P-gp expression in human K562/ADR cells assessed as ratio of P-gp to beta-actin level at 0.1 uM pretreated with MAPK inhibitor SB203580 for 1 hr followed by compound addition measured after 48 hrs by Western blot analysis (reference value: 0.63); type: functional, cell-based

SMILES: COc1cc([C@@H]2c3cc4c(cc3[C@H](OC(=O)c3ccco3)[C@H]3COC(=O)[C@H]23)OCO4)cc(OC)c1OC
- IC50 [1]: 25 nM
- Ratio IC50 [2]: 1.28
- Ratio [3]: 0.05
- Ratio [4]: 0.19
- Ratio [5]: 0.51
- Activity [6]: 60.8%
- Ratio [7]: 0.58
- Ratio [8]: 0.31
- viability at 0.1 µM [9]: 65.5%
- Activity [10]: 8.06%
- Activity [11]: 3.42%
- Activity [12]: 6.84%
- Ratio [13]: 0.49
- Activity [14]: Active
- Ratio [15]: 0.34
- Ratio [16]: 0.34
